Here are results for 28 compounds from patent publication US12624018B1, “Inhibitors of RIPK2 and medical uses thereof” (Odyssey Therapeutics, Inc., priority 2022, dated 2026).

A word on the IC50: it is the concentration that inhibits the measured activity by half.

The structures appear in SMILES notation.

For the test, the target named is T1, RIPK2 enzyme (Homo sapiens, UniProt O43353).
T1 construct: purchased Carna 09-128
Description: RIPK2 inhibition (ADP-Glo Kinase Assay). The class given is biochemical. The conditions noted are these: RIPK2 5 nM, ATP 150 μM, MBP substrate, read-out: RIPK2 IC50. The method in brief:
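Swine MBP substrate; compound and 5 nM RIPK2 first mixed for 30 min at room temperature; buffer pH 7.5 HEPES 50 mM with 10 mM MgCl2, 2 mM DTT, 1 mM EGTA, Brij-35, BSA.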
(ADP-Glo turns the ADP formed in a reaction into a luminescent signal.)

T1 sequence (O43353 1-299 limits assumed): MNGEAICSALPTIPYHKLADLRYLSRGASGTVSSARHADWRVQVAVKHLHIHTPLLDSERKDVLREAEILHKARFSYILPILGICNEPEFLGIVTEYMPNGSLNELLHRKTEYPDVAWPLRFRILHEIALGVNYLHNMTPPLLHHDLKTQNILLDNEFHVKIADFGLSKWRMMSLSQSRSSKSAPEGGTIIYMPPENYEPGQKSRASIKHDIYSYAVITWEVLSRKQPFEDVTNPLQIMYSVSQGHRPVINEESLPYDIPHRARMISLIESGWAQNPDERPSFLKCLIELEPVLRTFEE

Regarding `Cc1cc(CC(=O)Nc2cnn(C(C)(C)C)c2)c(F)cc1Oc1ccnc2ccc(CC3CCNCC3)cc12` [Compound 408, N-(1-(tert-butyl)-1H-pyrazol-4-yl)-2-(2-fluoro-5-methyl-4-((6-(piperidin-4-ylmethyl)quinolin-4-yl)oxy)phenyl)acetamide], the half-maximal inhibitory concentration (IC50) was less than 2.5 nM. To `Cc1c(Oc2ccnc3ccc(O[C@H]4C[C@H]5CC[C@@H](C4)N5)cc23)ccc(CC(=O)Nc2cnn(C(C)(C)C)c2)c1F` [Compound 409, 2-(4-((6-(((1R,3r,5S)-8-azabicyclo[3. 2.1]octan-3-yl)oxy)quinolin-4-yl)oxy)-2-fluoro-3-methyl-pheny1)-N-(1-(tert-butyl)-1H-pyrazol-4-yl)acetamide] belongs less than 2.5 nM; to `Cc1cc(CC(=O)Nc2cnn(C(C)(C)C)c2)c(F)cc1Oc1ccnc2ccc(O[C@H]3C[C@H]4CC[C@@H](C3)N4)cc12` [Compound 410, 2-(4-((6-(((1R,3r,5S)-8-azabicyclo[3. 2.1]octan-3-yl)oxy)quinolin-4-yl)oxy)-2-fluoro-5-methyl-pheny1)-N-(1-(tert-butyl)-1H-pyrazol-4-yl)acetamide], less than 2.5 nM; to `Cc1cc(CC(=O)Nc2cnn(C(C)(C)C)c2)c(F)cc1Oc1ccnc2ccc(C(C)(C)C#N)cc12` [Compound 411, N-(1-(tert-butyl)-1H-pyrazol-4-yl)-2-(4-((6-(2-cyanopropan-2-yl)quinolin-4-yl)oxy)-2-fluoro-5-methylphenyl)acetamide], less than 2.5 nM. In the case of `COc1cc2nccc(Oc3cc(F)c(CC(=O)Nc4cnn(C(C)(C)C)c4)cc3C)c2cc1S(C)(=O)=O` [Compound 412, N-(1-(tert-butyl)-1H-pyrazol-4-yl)-2-(2-fluoro-4-((7-methoxy-6-(methylsulfonyl)quinolin-4-yl)oxy)-5-methylphenyl) acetamide], the IC50 is less than 2.5 nM. Take `Cc1cc(CC(=O)Nc2cnn(C(C)(C)C)c2)c(F)cc1Oc1ccnc2ccc(N3CCOC3=O)cc12` [Compound 414, N-(1-(tert-butyl)-1H-pyrazol-4-yl)-2-(2-fluoro-5-methyl-4-((6-(2-oxooxazolidin-3-yl)quinolin-4-yl)oxy)phenyl) acetamide]: the IC50 is less than 2.5 nM.

For `Cc1cc(CC(=O)Nc2cnn(C(C)(C)C)c2)c(F)cc1Oc1ccnc2ccc(S(=O)(=O)CC(C)(C)O)cc12` [Compound 415, N-(1-(tert-butyl)-1H-pyrazol-4-yl)-2-(2-fluoro-4-((6-((2-hydroxy-2-methylpropyl)sulfonyl)quinolin-4-yl)oxy)-5-methylphenyl)acetamide], the 50% inhibitory concentration (IC50) is less than 2.5 nM. To `Cc1cc(CC(=O)Nc2cnn(C(C)(C)C)c2)c(F)cc1Oc1ccnc2ccc(S(=O)(=O)C3CC3)cc12` [Compound 416, N-(1-(tert-butyl)-1H-pyrazol-4-yl)-2-(4-((6-(cyclopropylsulfonyl)quinolin-4-yl)oxy)-2-fluoro-5-methylphenyl)acetamide] belongs less than 2.5 nM; to `CCS(=O)(=O)c1ccc2nccc(Oc3ccc(CC(=O)Nc4cnn(C(C)(C)C)c4)cc3C(F)F)c2c1` [Compound 417, N-(1-(tert-butyl)-1H-pyrazol-4-yl)-2-(3-(difluoromethyl)-4-((6-(ethylsulfonyl)quinolin-4-yl)oxy)phenyl) acetamide], less than 2.5 nM; to `CC(C)(C)n1cc(NC(=O)Cc2ccc(Oc3ccnc4ccc(S(=O)(=O)C5CC5)cc34)c(C(F)F)c2)cn1` [Compound 418, N-(1-(tert-butyl)-1H-pyrazol-4-yl)-2-(4-((6-(cyclopropyl-sulfonyl)quinolin-4-yl)oxy)-3-(difluoromethyl)phenyl)acetamide], less than 2.5 nM. For the compound `Cc1cc(CC(=O)Nc2cnn(C(C)(C)C)c2)c(F)cc1Oc1ccnc2ccc(CN3CCNCC3)cc12` [Compound 419, N-(1-(tert-butyl)-1H-pyrazol-4-yl)-2-(2-fluoro-5-methyl-4-((6-(piperazin-1-ylmethyl)quinolin-4-yl)oxy)phenyl)acetamide], the IC50 is less than 2.5 nM. As for `Cc1cc(CC(=O)Nc2cnn(C(C)(C)C)c2)c(F)cc1Oc1ccnc2ccc(CN3C[C@@H]4C[C@H]3CN4)cc12` [Compound 420, 2-(4-((6-(((1S,4S)-2,5-diazabicyclo[2.2.1]heptan-2-yl)methyl)quinolin-4-yl)oxy)-2-fluoro-5-methylphenyl)-N-(1-(tert-butyl)-1H-pyrazol-4-yl)acetamide], the half-maximal inhibitory concentration (IC50) is less than 2.5 nM. As to `Cc1cc(CC(=O)Nc2cnn(C(C)(C)C)c2)c(F)cc1Oc1ccnc2ccc(CN3C[C@H]4C[C@@H]3CN4)cc12` [Compound 421, 2-(4-((6-(((1R,4R)-2,5-diazabicyclo[2.2.1]heptan-2-yl)methyl)quinolin-4-yl)oxy)-2-fluoro-5-methylphenyl)-N-(1-(tert-butyl)-1H-pyrazol-4-yl)acetamide], the half-maximal inhibitory concentration (IC50) was less than 2.5 nM. Take `Cc1cc(CC(=O)Nc2cnn(C(C)(C)C)c2)c(F)cc1Oc1ccnc2ccc(CN3C[C@@H]4C[C@H]3CO4)cc12` [Compound 422, 2-(4-((6-(((1S,4S)-2-oxa-5-azabicyclo[2.2.1]heptan-5-yl)methyl)quinolin-4-yl)oxy)-2-fluoro-5-methylphenyl)-N-(1-(tert-butyl)-1H-pyrazol-4-yl)acetamide]: the IC50 is less than 2.5 nM. Take `Cc1cc(CC(=O)Nc2cnn(C(C)(C)C)c2)c(F)cc1Oc1ccnc2ccc(CN3C[C@H]4C[C@@H]3CO4)cc12` [Compound 423, 2-(4-((6-(((1R,4R)-2-oxa-5-azabicyclo[2.2.1]heptan-5-yl)methyl)quinolin-4-yl)oxy)-2-fluoro-5-methylphenyl)-N-(1-(tert-butyl)-1H-pyrazol-4-yl)acetamide]: the IC50 is less than 2.5 nM. With `Cc1cc(CC(=O)Nc2cnn(C(C)(C)C)c2)c(F)cc1Oc1ccnc2ccc(-c3ncccn3)cc12` [Compound 424, N-(1-(tert-butyl)-1H-pyrazol-4-yl)-2-(2-fluoro-5-methyl-4-((6-(pyrimidin-2-yl)quinolin-4-yl)oxy)phenyl)acetamide], the IC50 was less than 2.5 nM. Turning to `Cc1cc(CC(=O)Nc2cnn(C(C)(C)C)c2)c(F)cc1Oc1ccnc2ccc(-c3cnccn3)cc12` [Compound 425, N-(1-(tert-butyl)-1H-pyrazol-4-yl)-2-(2-fluoro-5-methyl-4-((6-(pyrazin-2-yl)quinolin-4-yl)oxy)phenyl)acetamide], the half-inhibitory concentration (IC50) was less than 2.5 nM.

As for `Cc1cc(CC(=O)Nc2cnn(C(C)(C)C)c2)c(F)cc1Oc1ccnc2ccc(-c3cccnn3)cc12` [Compound 426, N-(1-(tert-butyl)-1H-pyrazol-4-yl)-2-(2-fluoro-5-methyl-4-((6-(pyridazin-3-yl)quinolin-4-yl)oxy)phenyl)acetamide], the half-maximal inhibitory concentration (IC50) was less than 2.5 nM. Take `Cc1cc(CC(=O)Nc2cnn(C(C)(C)C)c2)c(F)cc1Oc1ccnc2ccc(-c3ncn(C)n3)cc12` [Compound 427, N-(1-(tert-butyl)-1H-pyrazol-4-yl)-2-(2-fluoro-5-methyl-4-((6-(1-methyl-1H-1,2,4-triazol-3-yl)quinolin-4-yl)oxy)phenyl)acetamide]: the IC50 was less than 2.5 nM.

In the case of `Cc1cc(CC(=O)Nc2cnn(C(C)(C)C)c2)c(F)cc1Oc1ccnc2ccc(-c3ncnn3C)cc12` [Compound 428, N-(1-(tert-butyl)-1H-pyrazol-4-yl)-2-(2-fluoro-5-methyl-4-((6-(1-methyl-1H-1,2,4-triazol-5-yl)quinolin-4-yl)oxy)phenyl)acetamide], the half-maximal inhibitory concentration (IC50) was less than 2.5 nM. As to `CCS(=O)(=O)c1ccc2nccc(Oc3cc(F)c(CC(=O)Nc4cnn(C(C)(C)C)c4)cc3Cl)c2c1` [Compound 430, N-(1-(tert-butyl)-1H-pyrazol-4-yl)-2-(5-chloro-4-((6-(ethylsulfonyl)quinolin-4-yl)oxy)-2-fluorophenyl)acetamide], the IC50 was less than 2.5 nM.

Regarding `Cc1cc(CC(=O)Nc2nnc(C(C)(C)C)o2)ccc1Oc1ccnc2ccc(S(C)(=O)=O)cc12` [Compound 431, N-(5-(tert-butyl)-1,3,4-oxadiazol-2-yl)-2-(3-methyl-4-((6-(methylsulfonyl)quinolin-4-yl)oxy)phenyl) acetamide], the half-maximal inhibitory concentration (IC50) was less than 2.5 nM. Turning to `CC(C)(C)n1cc(NC(=O)Cc2ccc(Oc3ccnc4ccc(S(C)(=O)=O)cc34)c(C#N)c2)cn1` [Compound 432, N-(1-(tert-butyl)-1H-pyrazol-4-yl)-2-(3-cyano-4-((6-(methylsulfonyl)quinolin-4-yl)oxy)phenyl)acetamide], the IC50 is 2.8 nM.

`Cc1cc(CC(=O)Nc2cnn(C(C)(C)C)c2)c(F)cc1Oc1ccnc2ccc(C(C)(C)O)cc12` [Compound 433, N-(1-(tert-butyl)-1H-pyrazol-4-yl)-2-(2-fluoro-4-((6-(2-hydroxypropan-2-yl)quinolin-4-yl)oxy)-5-methylphenyl)acetamide]: the half-inhibitory concentration (IC50) is less than 2.5 nM.

Consider `Cc1cc(CC(=O)Nc2cnn(C(C)(C)C)c2)c(F)cc1Oc1ncnc2ccc(C(N)=O)cc12` [Compound 434, 4-(4-(2-((1-(tert-butyl)-1H-pyrazol-4-yl)amino)-2-oxoethyl)-5-fluoro-2-methylphenoxy)quinazoline-6-carboxamide], for which the IC50 amounted to 3 nM. Turning to `CNC(=O)c1cc2c(Oc3cc(F)c(CC(=O)Nc4cnn(C(C)(C)C)c4)cc3C)ccnc2cc1F` [Compound 435, 4-(4-(2-((1-(tert-butyl)-1H-pyrazol-4-yl)amino)-2-oxoethyl)-5-fluoro-2-methylphenoxy)-7-fluoro-N-methylquinoline-6-carboxamide], the half-inhibitory concentration (IC50) is less than 2.5 nM. As to `COc1cc2nccc(Oc3cc(F)c(CC(=O)Nc4cnn(C(C)(C)C)c4)cc3C)c2cc1C(N)=O` [Compound 436, 4-(4-(2-((1-(tert-butyl)-1H-pyrazol-4-yl)amino)-2-oxoethyl)-5-fluoro-2-methylphenoxy)-7-methoxyquinoline-6-carboxamide], the IC50 was less than 2.5 nM. Consider `CNC(=O)c1cc2c(Oc3cc(F)c(CC(=O)Nc4cnn(C(C)(C)C)c4)cc3C)ccnc2cc1OC` [Compound 437, 4-(4-(2-((1-(tert-butyl)-1H-pyrazol-4-yl)amino)-2-oxoethyl)-5-fluoro-2-methylphenoxy)-7-methoxy-N-methylquinoline-6-carboxamide], for which the IC50 is less than 2.5 nM.
